# Measured values from article PMC6340882, “Targeting protein kinase CK2 and CDK4/6 pathways with a multi-kinase inhibitor ON108110 suppresses pro-survival signaling and growth in mantle cell lymphoma and T-acute lymphoblastic leukemia” (Oncotarget, 2018).
# Assays:
# [1] = test system: phospho-PTEN Ser380 and AKT Ser129 in CEM and Granta-519 cells; assay: Western blot of CK2-mediated PTEN and AKT phosphorylation; format: cell-based, human; settings: CEM and Granta-519, 24 hours
# Procedure: Figure 6 Inhibition of CK2/CDK4 mediated signaling by ON108110 (A) CEM and (B) Granta-519 cells were treated with increasing concentrations of ON 108110 for 24 hours. Whole cell extracts were subjected to western blot analysis using antibodies directed against the indicated proteins. GAPDH is shown as a loading control.
# Cells were grown as indicated, lysed in lysis buffer (20mM Tris, pH 8.0/ 137mM NaCl/ 10% glycerol/ 1% NP-40) supplemented with 1X protease and phosphatase inhibitor cocktail on ice and resolved by SDS-PAGE. The proteins were transferred to a nitrocellulose membrane and subjected to Western blot analysis using the indicated antibodies. Proteins were visualized using an Odyssey imaging system (LI-COR Biosciences).
# [2] = molecular target: T1, recombinant CK2α1 (Homo sapiens, UniProt P68400); assay: Microscale thermophoresis (MST); format: binding; settings: 16 concentrations 0.1nM-1000nM, average of 3 independent experiments
# T1 construct: Amino acid residues 3-335 of CK2α1 were cloned using BamH1 and HindIII into pET28bsmt3-SUMO fusion vector; SUMO (N); made in house; host or cells: Escherichia coli BL21-DE3 (RIL)
# T1 sequence (P68400 3-335): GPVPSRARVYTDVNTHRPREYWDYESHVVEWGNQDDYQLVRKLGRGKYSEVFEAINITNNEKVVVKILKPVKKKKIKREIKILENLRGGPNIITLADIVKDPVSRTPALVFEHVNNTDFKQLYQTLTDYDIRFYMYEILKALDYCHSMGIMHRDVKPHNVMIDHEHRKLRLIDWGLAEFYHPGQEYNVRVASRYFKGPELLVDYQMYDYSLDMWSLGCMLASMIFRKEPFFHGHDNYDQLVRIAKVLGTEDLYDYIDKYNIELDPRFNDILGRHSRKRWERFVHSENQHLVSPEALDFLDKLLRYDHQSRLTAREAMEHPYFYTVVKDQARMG
# Procedure: Purified His6-CK2α1 (kinase domain) was labeled with red NT-647 cysteine-reactive dye according to the manufacturer (NanoTemper Technologies). A fixed quantity of NT-647-labeled CK2α1 (50nM) was incubated with the indicated concentrations of ON108110 in binding buffer (20 mM Tris-HCl, pH 7.5, 150 mM NaCl, 1 mM MgCl2, 0.1% Triton X-100, and 2% DMSO) at room temperature in the dark for 30 min. Samples were then loaded into hydrophilic capillaries (NanoTemper Technologies) and binding was measured using the Monolith NT.115 (NanoTemper Technologies). Binding data were analyzed using thermophoresis or hot/cold analysis, as previously described prior to normalization to either ΔFnorm[%(10^*(Fnorm(bound)-Fnorm(unbound)) or fraction bound (ΔFnorm[%]/amplitude). Dissociation constants (Kd) were calculated using built-in curve-fitting software provided by the manufacturer (NanoTemper Technologies).
# [3] = molecular target: CDK5/P25 (Homo sapiens, UniProt Q00535); assay: Kinase panel profiling (Reaction Biology Corp); format: biochemical; settings: CDK5/P25, kinase inhibition profile
# Sequence of CDK5/P25 (Q00535 whole entry): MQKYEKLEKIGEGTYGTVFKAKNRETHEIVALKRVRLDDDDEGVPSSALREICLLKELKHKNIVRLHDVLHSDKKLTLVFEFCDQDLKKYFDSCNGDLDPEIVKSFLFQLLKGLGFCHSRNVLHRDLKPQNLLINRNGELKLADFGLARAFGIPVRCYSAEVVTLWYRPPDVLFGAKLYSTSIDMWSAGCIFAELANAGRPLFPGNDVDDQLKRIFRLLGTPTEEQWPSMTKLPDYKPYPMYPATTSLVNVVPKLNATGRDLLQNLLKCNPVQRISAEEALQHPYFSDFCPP
# Sequence of CDK5/P25 (Q15078 99-307 partner limits assumed): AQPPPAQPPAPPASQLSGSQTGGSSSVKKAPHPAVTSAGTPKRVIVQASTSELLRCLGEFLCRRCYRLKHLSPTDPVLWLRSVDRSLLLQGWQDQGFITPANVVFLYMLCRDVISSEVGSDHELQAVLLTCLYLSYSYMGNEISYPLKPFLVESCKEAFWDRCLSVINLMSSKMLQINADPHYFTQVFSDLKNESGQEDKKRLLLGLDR
# Procedure: (§1) Initial testing of ON108110 against a panel of 285 functional kinases was performed by Reaction Biology Corp (Malvern, PA). Recombinant CDK4/CYCLIN D1 or CK2α1 were mixed with their respective synthetic peptide substrates (10ng) and incubated with DMSO or increasing concentrations of ON108110 in 20μl kinase buffer [50mM Tris-HCl (pH 7.5), 10mM MgCl2, 1mM EGTA, 2mM DTT and 0.01% NP-40] for 30 min. at room temperature. Kinase reactions were carried out for 20 min at 30°C in the presence of 5μl of substrate-ATP mixture (1μg RB, 20μM ATP, 20μCi γ-^32P-ATP). The reactions were incubated at 30°C for 20 minutes, terminated by addition of 0.5M O-phosphoric acid and 10μl of the reaction mixture was spotted on P-30 Filtermat membranes (Wallac #1450-523). The filtermat was air-dried, blocked with methanol for 2 minutes followed by three washes with 75mM phosphoric acid. The filtermat was then air-dried and analyzed using a phosphoimager. Densitometric values were plotted as a function of log drug concentration using Prism 4 GraphPad software and the IC50 values determined by plotting sigmoidal non-linear regression curves with variable slope (n=3).
# [4] = molecular target: CDK4/CyclinD3 (Homo sapiens, UniProt P11802); assay: Kinase panel profiling (Reaction Biology Corp); format: biochemical; settings: CDK4/CyclinD3, kinase inhibition profile
# Sequence of CDK4/CyclinD3 (P11802 whole entry): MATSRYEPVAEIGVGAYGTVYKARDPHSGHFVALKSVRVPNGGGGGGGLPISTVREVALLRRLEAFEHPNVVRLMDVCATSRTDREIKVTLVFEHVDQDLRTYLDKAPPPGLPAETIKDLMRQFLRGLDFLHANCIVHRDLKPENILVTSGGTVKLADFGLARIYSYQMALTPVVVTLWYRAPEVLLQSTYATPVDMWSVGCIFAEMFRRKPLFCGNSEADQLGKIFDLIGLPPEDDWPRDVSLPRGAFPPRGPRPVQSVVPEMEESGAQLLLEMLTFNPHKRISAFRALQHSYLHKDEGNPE
# Sequence of CDK4/CyclinD3 (P30281 whole entry partner): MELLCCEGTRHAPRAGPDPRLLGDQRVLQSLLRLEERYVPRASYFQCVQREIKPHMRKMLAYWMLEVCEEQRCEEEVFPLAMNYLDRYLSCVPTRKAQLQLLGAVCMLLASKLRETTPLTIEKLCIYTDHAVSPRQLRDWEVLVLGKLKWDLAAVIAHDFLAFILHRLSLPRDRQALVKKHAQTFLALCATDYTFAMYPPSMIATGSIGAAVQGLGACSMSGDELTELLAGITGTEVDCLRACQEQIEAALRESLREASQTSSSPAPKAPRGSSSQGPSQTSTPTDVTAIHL
# Procedure: as §1
# [5] = molecular target: CDK6/CyclinD3 (Homo sapiens, UniProt Q00534); assay: Kinase panel profiling (Reaction Biology Corp); format: biochemical; settings: CDK6/CyclinD3, kinase inhibition profile
# Sequence of CDK6/CyclinD3 (Q00534 whole entry): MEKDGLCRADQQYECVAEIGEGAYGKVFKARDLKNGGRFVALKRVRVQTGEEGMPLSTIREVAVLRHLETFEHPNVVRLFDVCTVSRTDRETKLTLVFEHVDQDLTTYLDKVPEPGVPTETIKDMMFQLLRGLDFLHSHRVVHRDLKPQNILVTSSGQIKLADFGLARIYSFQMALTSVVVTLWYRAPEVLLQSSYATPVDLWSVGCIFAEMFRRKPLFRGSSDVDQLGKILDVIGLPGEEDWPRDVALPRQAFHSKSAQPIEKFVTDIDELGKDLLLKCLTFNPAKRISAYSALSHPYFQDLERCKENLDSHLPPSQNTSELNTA
# Sequence of CDK6/CyclinD3 (P30281 whole entry partner): as the sequence (P30281 whole entry partner) above
# Procedure: as §1
# [6] = molecular target: CK2α1 (Homo sapiens, UniProt P68400); assay: Kinase panel profiling (Reaction Biology Corp); format: biochemical; settings: CK2α1, kinase inhibition profile
# Sequence of CK2α1 (P68400 whole entry): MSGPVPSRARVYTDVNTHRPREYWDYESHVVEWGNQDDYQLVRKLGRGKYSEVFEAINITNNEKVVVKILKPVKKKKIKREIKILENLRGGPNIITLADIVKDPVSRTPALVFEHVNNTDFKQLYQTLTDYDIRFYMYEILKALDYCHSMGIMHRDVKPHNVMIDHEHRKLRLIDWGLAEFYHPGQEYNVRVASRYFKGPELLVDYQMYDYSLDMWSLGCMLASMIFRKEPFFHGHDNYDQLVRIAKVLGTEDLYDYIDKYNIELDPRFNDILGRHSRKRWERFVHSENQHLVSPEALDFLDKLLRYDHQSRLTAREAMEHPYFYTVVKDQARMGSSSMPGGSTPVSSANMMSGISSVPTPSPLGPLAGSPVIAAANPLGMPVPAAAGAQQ
# Procedure: as §1
# [7] = molecular target: CDK6/CyclinD1 (Homo sapiens, UniProt Q00534); assay: Kinase panel profiling (Reaction Biology Corp); format: biochemical; settings: CDK6/CyclinD1, kinase inhibition profile
# Sequence of CDK6/CyclinD1 (Q00534 whole entry): as the sequence (Q00534 whole entry) above
# Sequence of CDK6/CyclinD1 (P24385 whole entry partner): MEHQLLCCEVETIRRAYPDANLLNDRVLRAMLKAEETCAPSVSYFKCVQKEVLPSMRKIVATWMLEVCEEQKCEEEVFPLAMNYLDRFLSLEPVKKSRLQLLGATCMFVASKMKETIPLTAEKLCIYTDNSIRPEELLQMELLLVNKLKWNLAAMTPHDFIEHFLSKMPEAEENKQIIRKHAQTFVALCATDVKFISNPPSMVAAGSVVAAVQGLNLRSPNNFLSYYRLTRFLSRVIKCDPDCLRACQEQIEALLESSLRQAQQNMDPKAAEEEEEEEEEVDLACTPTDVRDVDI
# Procedure: as §1
# [8] = molecular target: CK2α2 (Homo sapiens, UniProt P19784); assay: Kinase panel profiling (Reaction Biology Corp); format: biochemical; settings: CK2α2, kinase inhibition profile
# Sequence of CK2α2 (P19784 whole entry): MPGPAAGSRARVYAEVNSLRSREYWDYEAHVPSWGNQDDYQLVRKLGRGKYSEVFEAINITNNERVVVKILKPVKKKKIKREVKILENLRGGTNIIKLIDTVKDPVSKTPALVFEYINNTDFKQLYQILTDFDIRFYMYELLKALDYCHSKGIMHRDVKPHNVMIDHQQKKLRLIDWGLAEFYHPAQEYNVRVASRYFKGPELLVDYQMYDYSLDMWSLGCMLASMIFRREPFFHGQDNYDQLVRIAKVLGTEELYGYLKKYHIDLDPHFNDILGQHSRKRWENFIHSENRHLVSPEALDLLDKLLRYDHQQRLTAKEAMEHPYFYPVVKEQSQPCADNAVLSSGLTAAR
# Procedure: as §1
# [9] = molecular target: CDK4/CyclinD1 (Homo sapiens, UniProt P11802); assay: Kinase panel profiling (Reaction Biology Corp); format: biochemical; settings: CDK4/CyclinD1, kinase inhibition profile
# Sequence of CDK4/CyclinD1 (P11802 whole entry): as the sequence (P11802 whole entry) above
# Sequence of CDK4/CyclinD1 (P24385 whole entry partner): as the sequence (P24385 whole entry partner) above
# Procedure: as §1
# [10] = molecular target: PIM3 (Homo sapiens, UniProt Q86V86); assay: Kinase panel profiling (Reaction Biology Corp); format: biochemical; settings: PIM3, kinase inhibition profile
# Procedure: as §1
# [11] = molecular target: CDK6 (Homo sapiens, UniProt Q00534); assay: In vitro kinase assay with recombinant protein (32P-ATP, filtermat); format: biochemical; settings: recombinant CDK6, independent in vitro kinase assay, 20μM ATP
# Sequence of CDK6 (Q00534 whole entry): as the sequence (Q00534 whole entry) above
# Sequence of CDK6 (P24385 whole entry partner): as the sequence (P24385 whole entry partner) above
# Procedure: Figure 1 ON108110 is a multi-kinase inhibitor (A) Structure of the ON108XXO benzo thiazolidinnes chemotype. (B) Structure of ON108110. (C) Calculation of IC50 values against CDK4 and CDK6 and (D) CK2α1 and CK2α2 by ON108110. Recombinant proteins were incubated with the indicated concentrations of ON108110 and subjected to in vitro kinase assays as described in the materials and methods section. Values obtained were plotted as a function of log drug concentration. IC50 values were determined by performing sigmoidal non-linear regression with a variable slope.
# as §1, with “The reactions were incubated at 30°C for 20 minutes, terminated by addition of 0.5M O-phosphoric acid and 10μl of the reaction mixture was spotted on P-30 Filtermat membranes (Wallac #1450-523). The filtermat was air-dried, blocked with methanol for 2 minutes followed by three washes with 75mM phosphoric acid.” left out
smiles,measurement,setting,value
CC(=O)Oc1ccc(/C=C2\Sc3ccc(F)cc3NC2=O)cc1[N+](=O)[O-] [ON108110],level of AKT Ser129,[1],reduction
same,level of phospho-PTEN Ser380,[1],lower levels
same,Kd,[2],2.5 nM
same,IC50,[3],7 nM
same,IC50,[4],15 nM
same,IC50,[5],24 nM
same,IC50,[6],3 nM
same,IC50,[7],2 nM
same,IC50,[8],2 nM
same,IC50,[9],11 nM
same,IC50,[10],2 nM
same,IC50,[11],10 nM
